Biological target: Vascular endothelial growth factor receptor 2 (Homo sapiens, UniProt P35968)
Type: functional
Further: assay procedure not described here.

Sequence of Vascular endothelial growth factor receptor 2 (P35968 whole entry): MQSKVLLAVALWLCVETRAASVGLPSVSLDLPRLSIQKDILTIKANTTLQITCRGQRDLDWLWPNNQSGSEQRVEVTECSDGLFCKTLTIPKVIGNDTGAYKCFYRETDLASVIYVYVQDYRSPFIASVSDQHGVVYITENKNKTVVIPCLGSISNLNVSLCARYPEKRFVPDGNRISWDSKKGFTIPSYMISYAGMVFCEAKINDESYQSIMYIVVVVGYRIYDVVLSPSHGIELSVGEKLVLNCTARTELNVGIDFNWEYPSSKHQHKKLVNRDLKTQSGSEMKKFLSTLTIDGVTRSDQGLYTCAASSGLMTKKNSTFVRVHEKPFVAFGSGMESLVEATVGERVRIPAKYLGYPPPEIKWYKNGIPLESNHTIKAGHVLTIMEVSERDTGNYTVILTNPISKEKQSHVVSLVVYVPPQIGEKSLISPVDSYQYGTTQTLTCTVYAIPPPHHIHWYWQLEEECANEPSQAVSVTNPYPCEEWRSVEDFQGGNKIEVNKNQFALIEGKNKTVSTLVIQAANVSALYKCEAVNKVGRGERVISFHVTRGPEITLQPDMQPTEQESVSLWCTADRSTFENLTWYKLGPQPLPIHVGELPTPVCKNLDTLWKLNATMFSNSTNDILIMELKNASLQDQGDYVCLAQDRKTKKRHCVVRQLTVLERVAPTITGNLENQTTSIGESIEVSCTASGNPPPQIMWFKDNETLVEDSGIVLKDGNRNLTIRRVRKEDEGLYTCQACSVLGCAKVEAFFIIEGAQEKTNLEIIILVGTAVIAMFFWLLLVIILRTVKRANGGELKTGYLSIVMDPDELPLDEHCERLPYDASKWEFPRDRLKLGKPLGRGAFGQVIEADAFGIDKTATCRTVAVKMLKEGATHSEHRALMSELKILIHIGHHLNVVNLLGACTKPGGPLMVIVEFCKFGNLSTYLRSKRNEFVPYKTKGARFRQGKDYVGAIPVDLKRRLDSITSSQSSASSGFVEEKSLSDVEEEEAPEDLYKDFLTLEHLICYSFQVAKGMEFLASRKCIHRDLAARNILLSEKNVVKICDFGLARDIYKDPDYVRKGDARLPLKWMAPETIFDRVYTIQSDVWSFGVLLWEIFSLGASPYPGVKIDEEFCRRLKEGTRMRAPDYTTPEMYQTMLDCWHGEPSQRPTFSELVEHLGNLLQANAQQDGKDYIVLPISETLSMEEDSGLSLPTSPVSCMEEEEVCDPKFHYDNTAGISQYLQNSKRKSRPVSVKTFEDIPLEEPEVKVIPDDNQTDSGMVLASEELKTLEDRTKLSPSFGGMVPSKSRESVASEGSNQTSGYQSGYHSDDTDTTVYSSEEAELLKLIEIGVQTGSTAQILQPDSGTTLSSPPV

| Compound | AC50 |
| --- | --- |
| CC[C@@H]1C[C@]1(NC(=O)[C@@H]1C[C@@H]2CN1C(=O)[C@H](C(C)(C)C)NC(=O)OCC(C)(C)CCCCc1cccc3c1CN(C3)C(=O)O2)C(=O)NS(=O)(=O)C1CC1 | 16.3 µM |
| CC(=O)NCCCCCC(=O)O [ACEXAMIC ACID] | > 30 µM |
| C=C(C)CNc1ccc(C(C)C(=O)O)cc1 (centres undefined) [ALMINOPROFEN] | > 30 µM |
| C[C@H]1CN(C[C@H](Cc2ccccc2)C(=O)NCC(=O)O)CC[C@@]1(C)c1cccc(O)c1 [ALVIMOPAN] | > 30 µM |
| O=C(O)c1ccccc1 [BENZOIC ACID] | > 30 µM |
| C[C@H]1O[C@@H](O[C@H]2CC[C@@]3(C)[C@H](CC[C@@H]4[C@@H]3C[C@@H](O)[C@]3(C)[C@@H](C5=CC(=O)OC5)CC[C@]43O)C2)C[C@H](O)[C@@H]1O[C@H]1C[C@H](O)[C@H](O[C@H]2C[C@H](O)[C@H](O[C@@H]3O[C@H](CO)[C@@H](O)[C@H](O)[C@H]3O)[C@@H](C)O2)[C@@H](C)O1 [DESLANOSIDE] | > 30 µM |
| CC(C(=O)O)c1cccc(Oc2ccccc2)c1 (centres undefined) [FENOPROFEN] | > 30 µM |
| CC1(C)O[C@@H]2C[C@H]3[C@@H]4C[C@H](F)C5=CC(=O)C=C[C@]5(C)[C@@]4(F)[C@@H](O)C[C@]3(C)[C@]2(C(=O)CO)O1 [FLUOCINOLONE ACETONIDE] | > 30 µM |
| O=C(O)P(=O)(O)O [FOSCARNET] | > 30 µM |
| N=C(N)N/N=C/c1c(Cl)cccc1Cl [GUANABENZ] | > 30 µM |
| C[N+](C)(CCCCCC[N+](C)(C)C1c2ccccc2-c2ccccc21)C1c2ccccc2-c2ccccc21 [HEXAFLUORENIUM] | > 30 µM |
| CCCCC(CC)CN1CN(CC(CC)CCCC)CC(C)(N)C1 (centres undefined) [HEXETIDINE] | > 30 µM |
| Cc1cc(=O)oc2cc(O)ccc12 [HYMECROMONE] | 25.4 µM |
| COc1c2occc2c(OC)c2c(=O)cc(C)oc12 [KHELLIN] | > 30 µM |
| CC(C)[C@@H]1CC[C@@H](C)C[C@H]1O [LEVOMENTHOL] | > 30 µM |
| COC(=O)[C@@H](N)Cc1ccc(O)c(O)c1 [MELEVODOPA] | > 30 µM |
| C[N+]1(C)CCCC(OC(=O)C(O)(c2ccccc2)c2ccccc2)C1 (centres undefined) [MEPENZOLATE] | > 30 µM |
| C=N[C@@H](C(=O)N[C@@H]1C(=O)N2[C@@H]1SC(C)(C)[C@@H]2C(=O)O)c1ccccc1 [METAMPICILLIN] | > 30 µM |
| O=C(NNCS(=O)(=O)O)c1ccncc1 [METHANIAZIDE] | > 30 µM |

Reference: ChEMBL document CHEMBL5291721, “A preclinical secondary pharmacology resource illuminates target-adverse drug reaction associations of marketed drugs” (Nat Commun, 2023)
